Each structure is given as a SMILES string.

One experiment relates to OVCAR-3. Description: Cytotoxicity against human OVCAR-3 cells assessed as reduction in cell viability measured after 72 hrs by celltiter-blue cell viability assay. In kind it is functional, cell-based. To be noted: OVCAR-3, 72 h. A general note: Resazurin is reduced to fluorescent resorufin, in cell work by metabolically active cells.
In the next experiment the test system is MDA-MB-435. In words: Cytotoxicity against human MDA-MB-435 cells assessed as reduction in cell viability measured after 72 hrs by celltiter-blue cell viability assay. In kind it is functional, cell-based. The settings on record: MDA-MB-435, 72 h.

A word on the IC50: it is the concentration that inhibits the measured activity by half. With `COC(=O)O[C@H]1C[C@H]2O[C@@H]2c2cc(OC)cc(O)c2C(=O)O[C@@H](C)C/C=C\C(=O)[C@H]1O`, the IC50 in the experiment with OVCAR-3 and in the experiment on MDA-MB-435 was 1700 nM throughout.

On to `COc1cc(O)c2c(c1)[C@H]1O[C@@H]1C[C@H](OC(C)=O)[C@H](O)C(=O)/C=C\C[C@H](C)OC2=O`, for which the IC50 in the experiment with OVCAR-3 and with MDA-MB-435 was 1700 nM each time.

In the case of `COC(=O)O[C@@H]1C(=O)/C=C\C[C@H](C)OC(=O)c2c(O)cc(OC)cc2[C@H]2O[C@@H]2C[C@@H]1O`, the IC50 in the experiment on OVCAR-3 and in the experiment on MDA-MB-435 was 1700 nM each time.

Take `COc1cc(O)c2c(c1)[C@H]1O[C@@H]1C[C@H](OC(=O)CCC(=O)O)[C@H](O)C(=O)/C=C\C[C@H](C)OC2=O`: the IC50 in the experiment on OVCAR-3 and with MDA-MB-435 was 1700 nM in each case.

As to `C=CCOC(=O)O[C@H]1C[C@H]2O[C@@H]2c2cc(OC)cc(O)c2C(=O)O[C@@H](C)C/C=C\C(=O)[C@H]1O`, the IC50 in the experiment with OVCAR-3 and with MDA-MB-435 was 1700 nM throughout.

Regarding `COc1cc(O)c2c(c1)[C@H]1O[C@@H]1C[C@H](OC(=O)/C=C\C(=O)O)[C@H](OC(=O)/C=C\C(=O)O)C(=O)/C=C\C[C@H](C)OC2=O`, the IC50 in the experiment with OVCAR-3 and with MDA-MB-435 was 1700 nM in each case.

`COc1cc(O)c2c(c1)[C@H]1O[C@@H]1C[C@H](O)[C@H](OC(C)=O)C(=O)/C=C\C[C@H](C)OC2=O`: the IC50 with OVCAR-3 and with MDA-MB-435 was 1700 nM each time.

Regarding `C=CCOC(=O)O[C@@H]1C(=O)/C=C\C[C@H](C)OC(=O)c2c(O)cc(OC)cc2[C@H]2O[C@@H]2C[C@@H]1O`, the IC50 in the experiment with OVCAR-3 and in the experiment with MDA-MB-435 was 1700 nM in each case.

With `COc1cc(O)c2c(c1)[C@H]1O[C@@H]1C[C@H](OC(=O)/C=C\C(=O)O)[C@H](O)C(=O)/C=C\C[C@H](C)OC2=O`, the IC50 with OVCAR-3 and in the experiment on MDA-MB-435 was 1700 nM throughout.

For the molecule `CCOC(=O)O[C@H]1C[C@H]2O[C@@H]2c2cc(OC)cc(O)c2C(=O)O[C@@H](C)C/C=C\C(=O)[C@H]1O`, the concentration for half-maximal inhibition (IC50) with OVCAR-3 and in the experiment with MDA-MB-435 was 1700 nM throughout.

Regarding `COc1cc(O)c2c(c1)[C@H]1O[C@@H]1C[C@H](O)[C@H](O)C(=O)/C=C\C[C@H](C)OC2=O` [HYPOTHEMYCIN], the IC50 with OVCAR-3 stood at 2600 nM; in the experiment on MDA-MB-435, 1900 nM.

For the origin of these results see ChEMBL document CHEMBL5120924 (J Nat Prod, 2022).
